Read-outs that look alike come from different tables or passages of the source.
Tests used:
Format in all cases: in vivo
Aedes aegypti larvae [1] = test system: Aedes aegypti larvae
Excerpt: This example describes a laboratory bioassay in which groups of mosquito larvae were exposed to a nootkatone-containing composition to determine larval susceptibility to nootkatone.
One milliliter of a solution of nootkatone in ethanol was applied directly to 100 milliliters of water containing larvae, using a micropipette. One treatment condition used 3% (v/v) nootkatone in ethanol, and a second treatment condition used 1% (v/v) nootkatone in ethanol, for final concentrations of 0.03% or 0.01% (v/v), respectively. One milliliter of pure ethanol was used as a control. Four replicates of 25 larvae were tested per treatment. Clean, glass 600 mL laboratory beakers were used as test containers such that the surface area of the water to be treated was 54 cm^2.
(§1) Larvae were observed after 24 hours post-introduction to the test containers.
(§2) Readings were discontinued if treated mortality reached 100%, or control mortality exceeded 20%.

Aedes aegypti larvae [2] = experiment: Larval bioassay comparing nootkatone with soy oil and mineral oil (Example No. 2); settings: FIG. 3
Excerpt: This example describes a laboratory bioassay in which groups of mosquito larvae were exposed to compositions that contain oils, but not nootkatone, to determine whether larval mortality was due to suffocation by oils in general, or due to a specific property of nootkatone.
One milliliter of a solution of oil in ethanol was applied directly to 100 milliliters of water containing larvae, using a micropipette. One treatment condition used 3% (v/v) soybean oil in ethanol, and a second treatment condition used 3% (v/v) mineral oil in ethanol, for final concentrations of 0.03% (v/v), respectively. One milliliter of pure ethanol was used as a control, and 0.03% (v/v) nootkatone in ethanol was included as a comparison of efficacy. Two replicates of 25 larvae were tested per treatment in clean, glass 600 mL beakers.
as §2

mosquito larvae = test system: mosquito larvae
Experimental: In this example, concentration titration was performed to determine effective concentrations of nootkatone in nootkatone-containing protective compositions that maintain larvicidal activity, and to determine the effect of surface area on larvicidal activity of nootkatone-containing compositions.
One milliliter of a solution of nootkatone in ethanol was applied directly to 200 milliliters of water containing larvae, using a micropipette. One treatment condition used 3% (v/v) nootkatone in ethanol, a second treatment condition used 1% (v/v) nootkatone in ethanol, and a third treatment used 0.5% (v/v) nootkatone in ethanol, for final concentrations of 30, 10, or 5 mg of nootkatone added per container. One milliliter of pure ethanol was used as a control. Three replicates of 25 larvae were tested per treatment in small- (250 mL flasks (23.8 cm^2 surface area) and medium-sized (600 mL beakers (54 cm^2 surface area)) containers, but only two replicates were made in large 1000 mL beakers (86.6 cm^2 surface area).
Containers were lightly covered with paper towels. Indicated surface areas were calculated based on the inside diameter of the container at the surface level when 200 mL water was added to the container.
as §1, §2

[3] = test system: 3rd and 4th instar larvae; experiment: Duration of protection from larvae, Method 2: individual pre-treated beakers used once (Example No. 4); settings: for larvae mortality rates: through one week of treatment
Experimental: Method 2: Clean, glass 600 mL beakers were set up as test containers (such that the surface area of water to be treated was 54 cm^2), and were treated with 1 mL of 1% or 3% nootkatone in ethanol (v/v), or 1 mL of ethanol alone, to achieve a final concentration of 0.01% or 0.03% nootkatone (v/v), respectively. Beakers were lightly covered with Kimwipes to prevent contamination, and to reduce evaporation. Beakers treated with 1 mL of 100% ethanol were used as controls. Four cohorts of 25 3rd and 4th instar larvae were added to individual beakers per day, 3-14 days after treatment with nootkatone, and mortality of larvae was recorded 24 and 48 hours after addition of larvae to beakers.
For the experimental data shown in FIGS. 5-7, the method used included addition and removal of water, and potentially, removal of nootkatone, on each succeeding day. In a new experiment, individual beakers were set up in advance, so that all beakers were used one and only one time to test the longevity of nootkatone, with the only possible loss due to evaporation.
In a separate experiment using the same setup, nootkatone-treated beakers were held for two weeks prior to addition of larvae. Due to the extended time delay, more than 50% of the original liquid volume had evaporated. To avoid having a potentially higher concentration of nootkatone than the desired 0.03%, sterile water was added to bring the total volume back to 100 mL before larval cohorts were added.

Aedes aegypti eggs = experiment: Prevention of mosquito egg hatching (Example No. 5); settings: 0.03% nootkatone/1% ethanol, 24 hours
Experimental: Mosquito eggs from Aedes aegypti and Anopheles quadrimaculatus mosquitoes were obtained from a commercial source.
In a second experiment, Aedes aegypti eggs were divided into cohorts of ˜100 eggs. Each cohort was placed inside a clean 9 cm Petri dish after receiving mock treatment or a true treatment with nootkatone (see “Treatments”), after which the Petri dish was covered with its lid and held at 30-35° C. to allow hatching. Hatching was scored as the number of live larvae after 24 hours. Four cohorts were tested per treatment.
An aliquot of 0.2 mL of a 3% solution (w/v) of nootkatone in 100% ethanol was added to 20 mL of sterile MilliQ water in treatment Petri dishes to obtain a final concentration of 0.03% nootkatone/1% ethanol. Control beakers received 0.2 mL of 100% ethanol, to obtain a final concentration of 1% ethanol.
The rate of egg hatching was calculated for each treatment and control egg cohort, and the results of at least 4 cohorts were averaged, and used to calculate the relative hatch rate for treatments versus controls (see FIG. 11). […] Therefore, nootkatone treatment of mosquito breeding sites will effectively reduce mosquito populations by preventing hatching and killing hatched larvae.

## C=C(C)[C@@H]1CCC2=CC(=O)C[C@@H](C)[C@]2(C)C1 [Nootkatone, nootkatone]
Aedes aegypti larvae [1]; 0.01% (v/v) nootkatone final, 24 hours of exposure, four replicates
  larvae killed, on average: 80%
Aedes aegypti larvae [1]; 0.01% (v/v) nootkatone final, after 48 hours
  mortality: 100%
Aedes aegypti larvae [1]; 0.03% (v/v) nootkatone final (1 mL of 3% in ethanol to 100 mL water), 54 cm^2, 24 hours post introduction
  Dead (mortality), mean: 100%
Aedes aegypti larvae [1]; 0.03% (v/v) nootkatone final, 1% ethanol, 100 mL water, 54 cm^2, 24 hours post introduction
  Affected, mean: 100.0%
Aedes aegypti larvae [1]; 0.03% (v/v) nootkatone final, 1% ethanol, 100 mL water, 54 cm^2, 24 hours post introduction, four replicates of 25 larvae
  Morbidity (M), mean: 0%
Aedes aegypti larvae [2]; 0.03% (v/v) final in water with ethanol, in 24 hours, two replicates of 25 larvae
  larvae killed: 100%
Aedes aegypti larvae [2]; 0.03% (v/v), after 24 hr treatment
  effectiveness of killing larvae versus soy oil and mineral oil: more effective than either soy oil or mineral oil
Mosquito larvae; 5 mg nootkatone in 200 mL water, 250 mL flasks, 23.8 cm^2, 24 hours
  larval mortality: 68%
Mosquito larvae; 5 mg nootkatone in 200 mL water, largest containers, 86.6 cm^2, 24 hours
  larvae killed: did not kill
Mosquito larvae; 5 mg nootkatone in 200 mL water, medium sized containers, 54 cm^2, 24 hours
  larval mortality: 16%
Mosquito larvae; 10 mg nootkatone in 200 mL water, flasks with smallest surface area 23.8 cm^2 (about 0.42 mg/cm^2)
  larvae killed in 24 hours: killed all larvae
Mosquito larvae; 30 mg nootkatone in 200 mL water, any container size (23.8, 54, 86.6 cm^2)
  larvae killed in 24 hours: kill all larvae
Mosquito larvae; 24 hours, water surface
  surface concentration at which nootkatone exhibits larvicidal properties: at least 0.09 mg/cm^2
[3]; 0.01% nootkatone (v/v), twenty-four hours of exposure, FIG. 8
  larvae mortality rates: over 80%
[3]; 0.01% nootkatone, larvae added 3 days after water treatment, FIG. 8
  killing at 24 hours: 98%
[3]; 0.01% nootkatone, larvae added 7 days after water treatment, FIG. 8
  killing at 24 hours: 81%
[3]; 0.01% nootkatone, scored 48 hours after addition of larvae, 3-7 days after water treatment, FIG. 9
  larval mortality: 100%
[3]; 0.03% concentration
  nootkatone killing duration: at least two weeks
[3]; 0.03% nootkatone, beakers held two weeks before larvae, volume restored to 100 mL, FIG. 10
  larvae killed within 24 hours: 100%
[3]; 0.03% nootkatone, forty-eight hours of exposure, FIG. 9
  larvae mortality rates: 100%
[3]; 0.03% nootkatone, larvae added 3-7 days after water treatment, FIG. 8
  larvae killed within 24 hours: 100%
Aedes aegypti eggs
  reduction in egg hatching versus the controls: 37%
  state of hatched larvae in treated dishes: all larvae in the treated dishes were dead
Aedes aegypti eggs; cohorts of ~100 eggs, four dishes, controls 13.5, FIG. 11
  average number of hatched larvae per Petri dish: 8.5 larvae
